From PMC9676260, “Enzymatic properties of CARF-domain proteins in Synechocystis sp. PCC 6803” (Frontiers in Microbiology, 2022)
One block for each compound: values may come before it.

What was measured:
[1] = target: SyCsx1 (Csx1 homolog of the Synechocystis sp. PCC 6803 CRISPR2 type III-D system) (Synechocystis sp. PCC 6803); assay: SEC; Superdex 200 10/300 column in 50 mM Tris pH 8.0, 150 mM NaCl, 5% glycerol; elution volume compared with the monomer's mass; monomer to dimer
[2] = target: T1, SyCsm6 (Synechocystis sp. PCC 6803, UniProt Q6ZED6); assay: LC-MS of cOA degradation products; assay type: biochemical; details: ring nuclease; 667 nM cA6, 2 µM SyCsm6, 30 °C, 2 h
T1 construct: gene sll7062; full-length, His-tagged (pQE-80), E. coli BL21(DE3); encoded on plasmid pSYSA, CRISPR2 (III-D) locus
T1 sequence (Q6ZED6 1-371): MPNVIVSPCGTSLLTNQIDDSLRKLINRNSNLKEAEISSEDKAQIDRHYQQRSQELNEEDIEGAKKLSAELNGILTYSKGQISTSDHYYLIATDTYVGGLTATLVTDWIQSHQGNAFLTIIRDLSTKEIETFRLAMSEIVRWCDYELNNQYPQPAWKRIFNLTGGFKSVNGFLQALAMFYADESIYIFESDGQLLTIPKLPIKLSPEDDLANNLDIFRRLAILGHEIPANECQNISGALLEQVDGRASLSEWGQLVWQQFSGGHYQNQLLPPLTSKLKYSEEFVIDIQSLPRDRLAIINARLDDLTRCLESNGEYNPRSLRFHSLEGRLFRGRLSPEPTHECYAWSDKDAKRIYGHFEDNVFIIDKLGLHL

[3] = target: SyCsm6 (Csm6 homolog of the Synechocystis sp. PCC 6803 CRISPR2 type III-D system) (Synechocystis sp. PCC 6803); assay: SEC; Superdex 200 10/300 column in 50 mM Tris pH 8.0, 150 mM NaCl, 5% glycerol; elution volume compared with the monomer's mass; monomer to dimer
[4] = target: T1, SyCsm6; assay: LC-MS of cOA degradation products; coupled SyCsx1 activation assay; assay type: biochemical; details: ring nuclease; 667 nM cA4, 2 µM SyCsm6, 30 °C, 2 h
[5] = target: T2, SyCsx1 (Synechocystis sp. PCC 6803, UniProt Q6ZED7); assay: fluorogenic RNaseAlert cleavage; gel-based RNA cleavage; assay type: biochemical; details: allosteric activator binding the CARF domain; 300 nM cA4, 300 nM SyCsx1, 40 nM RNaseAlert substrate, 50 mM HEPES pH 7.5, 50 mM KCl, 1 mM DTT, 30 °C
T2 construct: gene slr7061; full-length, His-tagged (pQE-80), E. coli BL21(DE3); about 89 kDa by SEC, dimer; encoded on plasmid pSYSA, CRISPR2 (III-D) locus
T2 sequence (Q6ZED7 1-422): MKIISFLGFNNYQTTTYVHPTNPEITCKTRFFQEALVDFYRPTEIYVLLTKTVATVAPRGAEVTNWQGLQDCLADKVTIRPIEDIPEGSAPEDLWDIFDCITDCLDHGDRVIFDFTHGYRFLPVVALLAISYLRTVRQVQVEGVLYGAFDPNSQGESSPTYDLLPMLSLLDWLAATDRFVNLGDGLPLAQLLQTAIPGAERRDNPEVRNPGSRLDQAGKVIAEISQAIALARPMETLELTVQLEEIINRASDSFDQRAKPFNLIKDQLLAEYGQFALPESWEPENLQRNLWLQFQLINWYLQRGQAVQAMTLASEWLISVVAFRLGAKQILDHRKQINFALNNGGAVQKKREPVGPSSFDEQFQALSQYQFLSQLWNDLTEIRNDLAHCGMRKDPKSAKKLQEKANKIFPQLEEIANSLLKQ

[6] = target: T2, SyCsx1; assay: fluorogenic RNaseAlert cleavage; assay type: biochemical; details: activator; cFA4 preincubated at 20 nM (mock or with SyCsm6), then 300 nM SyCsx1, 20 nM RNaseAlert substrate, 30 °C

stoichiometry N [1]: 2
Compound: SyCsx1 (Csx1 homolog of the Synechocystis sp. PCC 6803 CRISPR2 type III-D system) (enzyme)

Compound: Nc1ncnc2c1ncn2[C@@H]1O[C@@H]2COP(=O)(O)O[C@H]3[C@@H](O)[C@H](n4cnc5c(N)ncnc54)O[C@@H]3COP(=O)(O)O[C@H]3[C@@H](O)[C@H](n4cnc5c(N)ncnc54)O[C@@H]3COP(=O)(O)O[C@H]3[C@@H](O)[C@H](n4cnc5c(N)ncnc54)O[C@@H]3COP(=O)(O)O[C@H]3[C@@H](O)[C@H](n4cnc5c(N)ncnc54)O[C@@H]3COP(=O)(O)O[C@H]3[C@@H](O)[C@H](n4cnc5c(N)ncnc54)O[C@@H]3COP(=O)(O)O[C@H]2[C@H]1O [cA6]
LC-MS of cOA degradation products [2]: cA6 was cleaved to A2 > P and an additional product

stoichiometry N [3]: 2
Compound: SyCsm6 (Csm6 homolog of the Synechocystis sp. PCC 6803 CRISPR2 type III-D system) (enzyme)

Compound: Nc1ncnc2c1ncn2[C@@H]1O[C@@H]2COP(=O)(O)O[C@H]3[C@@H](O)[C@H](n4cnc5c(N)ncnc54)O[C@@H]3COP(=O)(O)O[C@H]3[C@@H](O)[C@H](n4cnc5c(N)ncnc54)O[C@@H]3COP(=O)(O)O[C@H]3[C@@H](O)[C@H](n4cnc5c(N)ncnc54)O[C@@H]3COP(=O)(O)O[C@H]2[C@H]1O [cA4]
LC-MS of cOA degradation products; coupled SyCsx1 activation assay [4]: the substrate peak was gone and cA4 was converted to a product
fluorogenic RNaseAlert cleavage; gel-based RNA cleavage [5]: the addition of cA4 leads to a significant increase of the fluorescence signal

Compound: Nc1ncnc2c1ncn2[C@@H]1O[C@@H]2COP(=O)(O)O[C@H]3[C@@H](F)[C@H](n4cnc5c(N)ncnc54)O[C@@H]3COP(=O)(O)O[C@H]3[C@@H](F)[C@H](n4cnc5c(N)ncnc54)O[C@@H]3COP(=O)(O)O[C@H]3[C@@H](F)[C@H](n4cnc5c(N)ncnc54)O[C@@H]3COP(=O)(O)O[C@H]2[C@H]1F [cFA4]
fluorogenic RNaseAlert cleavage [6]: cFA4 is a less potent activator of SyCsx1 as seen by the slower substrate turnover
